Values quoted from earlier work, collected in publication PMC3066546, “Development of modified nucleosides that have supremely high anti-HIV activity and low toxicity and prevent the emergence of resistant HIV mutants” (Proceedings of the Japan Academy. Series B, Physical and …, 2011).
Like-named read-outs stand apart in the source and are kept apart here.

Tests used:
HIV-1wild = system: HIV-1wild; set-up: method as in PMID 18487070; details: Table 7; read-out: Anti-HIV activity (MAGI assay, µg) HIV-1wild
HIV-1M184V = system: HIV-1M184V; set-up: method as in PMID 18487070; details: Table 7; read-out: Anti-HIV activity (MAGI assay, µg) HIV-1M184V
[1] = system: multi-drug resistant HIV mutant
HIV-1MDR = system: HIV-1MDR; set-up: method as in PMID 18487070; details: Table 7; read-out: Anti-HIV activity (MAGI assay, µg) HIV-1MDR
RT of the M184V mutant = system: RT of the M184V mutant; set-up: method as in PMID 15456247; details: 4′EddCTP compared with RT of wild-type HIV
RT of wild-type HIV = system: RT of wild-type HIV; set-up: method as in PMID 15456247; details: compared with AZTTP
[2] = system: MDR (multidrug-resistant HIV); details: MAGI assay
adenosine deaminase [3] = details: 4′EdA to 4′EdI, 4′Ed2AA to 4′EdG
L74V drug-resistant HIV = system: L74V drug-resistant HIV; set-up: method as in PMID 11087576, PMID 11577734, PMID 15200030; details: MAGI assay
[4] = biological target: Y181C (non-nucleoside reverse transcriptase inhibitor-resistant); set-up: method as in PMID 11087576, PMID 11577734, PMID 15200030; details: MAGI assay
[5] = system: 41/215 drug-resistant HIV; set-up: method as in PMID 11087576, PMID 11577734, PMID 15200030; details: MAGI assay
[6] = system: 41/69/ 125/SG drug-resistant HIV; set-up: method as in PMID 11087576, PMID 11577734, PMID 15200030; details: MAGI assay
[7] = system: HIVs isolated from seven heavily drug-experienced patients; set-up: method as in PMID 11302824, PMID 12455229, PMID 15457679; details: seven heavily drug-experienced AIDS patients, as efficiently as against wild-type HIV
KH65R drug-resistant HIV = system: KH65R drug-resistant HIV; set-up: method as in PMID 11087576, PMID 11577734, PMID 15200030; details: MAGI assay
ICR mice = details: for Mortality (%): six-week-old ICR male mice
M184V drug-resistant HIV = system: M184V drug-resistant HIV; set-up: method as in PMID 11087576, PMID 11577734, PMID 15200030; details: MAGI assay
HXB2 (wild type HIV) = system: HXB2 (wild type HIV); set-up: method as in PMID 11087576, PMID 11577734, PMID 15200030; details: MAGI assay
HIV-1 Wild-type = system: HIV-1 Wild-type; set-up: method as in PMID 563233, PMID 17548498, PMID 18487070; details: Table 6
M184I drug-resistant HIV = system: M184I drug-resistant HIV; set-up: method as in PMID 11087576, PMID 11577734, PMID 15200030; details: MAGI assay
HIV-1LAI = details: MTT assay, MT-4 cells
[8] = Table 6
HIV [9] = system: HIV; set-up: method as in PMID 7764216; details: anti-HIV, Table 1
HIV-1 M184V = system: HIV-1 M184V; set-up: method as in PMID 563233, PMID 17548498, PMID 18487070; details: Table 6
DNA polymerase β = details: read-out: EC50 against DNA polymerase β
DNA polymerase α = details: read-out: EC50 against DNA polymerase α
[10] = CEM cells, MT4 cells, MAGI-CCR5 cells
[11] = biological target: human mitochondrion DNA polymerase (DNA polymerase γ); set-up: method as in PMID 17548498, PMID 18487070; details: read-out: EC50 to inhibit the incorporation of dATP
HIV [12] = system: HIV; set-up: method as in PMID 15456247
HIV [13] = details: 24 h after removal of extracellular drug, MT4 cells and MAGI cells cultured with 0.1 µM
[14] = set-up: method as in PMID 563233, PMID 17548498, PMID 18487070; details: 120 min, acidic conditions of gastric juices (pH 1.06), 24 ℃
adenosine deaminase [15] = system: adenosine deaminase; set-up: method as in PMID 563233, PMID 17548498, PMID 18487070; details: conditions where 4′EdA was completely deaminated in 60 min
HIV-1 MDR = system: HIV-1 MDR; set-up: method as in PMID 563233, PMID 17548498, PMID 18487070; details: Table 6

## C#C[C@@]1(CO)C=C[C@H](n2cc(C)c(=O)[nH]c2=O)O1 [4′Ed4T, 4′-C-ethynyl-2′,3′-didehydro-3′-deoxythymidine]
M184V-mutant
  potency against M184V-mutant compared with d4T: a little less potent
HIV-1wild
  EC50: 1500 nM
wild-type HIV
  potency against wild-type HIV compared with d4T: more potent
HIV-1M184V
  EC50: 17000 nM
[1]
  potency against multi-drug resistant HIV mutant compared with d4T: more potent
HIV-1MDR
  EC50: 1100 nM

## C#CC1(COP(=O)(O)OP(=O)(O)OP(=O)(O)O)CCC(n2ccc(N)nc2=O)O1 (stereo not drawn) [4′EddCTP]
RT of the M184V mutant
  activity against RT of the M184V mutant: much less active
RT of wild-type HIV
  activity against the RT of wild-type HIV: more active

## C#C[C@]1(CO)O[C@@H](n2cnc3c(N)nc(N)nc32)C[C@@H]1O [4′Ed2AA, 2′-deoxy-4′-C-ethynyl-2-aminoadenosine]
[2]
  EC50: 1 nM
MT-4 cells; Table 3
  CC50: 820 nM
Adenosine deaminase [3]
  conversion by adenosine deaminase in mice: easily converted
L74V drug-resistant HIV
  EC50: 0.7 nM
[4]
  EC50: 0.8 nM
[5]
  EC50: 1.7 nM
[6]
  EC50: 4.1 nM
[7]
  potency against HIVs isolated from patients: highly potent
KH65R drug-resistant HIV
  EC50: 0.35 nM
ICR mice; intraveneous administration, 1 mg/Kg
  Mortality (%): 0%
ICR mice; intraveneous administration, 3 mg/Kg
  Mortality (%): 0%
ICR mice; intraveneous administration, 10 mg/Kg
  Mortality (%): 100%
ICR mice; intraveneous administration, 100 mg/Kg
  Mortality (%): 100%
ICR mice; intraveneous, 10 mg/Kg
  survival days of mice after administration: 2 days
ICR mice; intraveneous, 100 mg/Kg
  survival days of mice after administration: 1 days
ICR mice; oral administration, 1 mg/Kg
  Mortality (%): 0%
ICR mice; oral administration, 3 mg/Kg
  Mortality (%): 100%
ICR mice; oral administration, 10 mg/Kg
  Mortality (%): 100%
ICR mice; oral administration, 100 mg/Kg
  Mortality (%): 100%
ICR mice; oral, 3 mg/Kg
  survival days of mice after administration: 2 days
ICR mice; oral, 10 mg/Kg
  survival days of mice after administration: 2 days
ICR mice; oral, 100 mg/Kg
  survival days of mice after administration: 1 days
M184V drug-resistant HIV
  EC50: 5.9 nM
HXB2 (wild type HIV)
  EC50: 1.4 nM
HIV-1 Wild-type
  EC50: 0.34 nM
M184I drug-resistant HIV
  EC50: 2.7 nM
Hela cells; Table 4, Hela cells
  CC50: > 200000 nM
HIV-1LAI; Table 3
  EC50: 0.3 nM
[8]
  CC50: 900 nM

## Cc1cn([C@H]2C[C@H](N=[N+]=[N-])[C@@H](CO)O2)c(=O)[nH]c1=O [AZT, 3′-azido-3′-deoxythymidine, reference compound]
HIV-1wild
  EC50: 170 nM
[2]
  EC50: 15300 nM
MT-4 cells
  CC50: 29400 nM
HIV-1M184V
  EC50: 130 nM
HIV [9]
  EC50: 1 nM
L74V drug-resistant HIV
  EC50: 20 nM
[4]
  EC50: 14 nM
HIV-1 M184V
  EC50: 16 nM
[5]
  EC50: 300 nM
[6]
  EC50: 1600 nM
KH65R drug-resistant HIV
  EC50: 20 nM
M184V drug-resistant HIV
  EC50: 10 nM
HXB2 (wild type HIV)
  EC50: 22 nM
HIV-1 Wild-type
  EC50: 3.2 nM
HIV-1MDR
  EC50: 74300 nM
M184I drug-resistant HIV
  EC50: 17 nM
Hela cells
  CC50: > 100000 nM
HIV-1LAI; Table 2
  EC50: 3.2 nM
HIV-1LAI; Table 3
  EC50: 3.2 nM

## C#C[C@]1(COP(=O)(O)OP(=O)(O)OP(=O)(O)O)O[C@@H](n2cnc3c(N)nc(F)nc32)C[C@@H]1O [4′Ed2FATP, 2′-deoxy-4′-C-ethynyl-2-fluoroadenosine-5-O-triphosphate]
DNA polymerase β
  EC50: > 200000 nM
DNA polymerase α
  EC50: > 200000 nM
[10]
  intracellular half-life (T1/2): ~18 h
[11]
  EC50: 10000 nM

## C#C[C@]1(CO)O[C@@H](n2cc(F)c(N)nc2=O)C[C@@H]1O [4′-C-ethynyl-2′-deoxy-5-fluorocytidine]
MT-4 cells; Table 2
  CC50: > 100000 nM
Other cells
  toxicity with other cells: toxic
HIV-1LAI; Table 2
  EC50: 30 nM

## C#C[C@@]1(CO)CC[C@H](n2ccc(N)nc2=O)O1 [4′EddC, 4′-C-ethynyl-2′,3′-dideoxycytidine]
HIV [12]
  activity against HIV in cellular systems: inactive

## C#C[C@]1(CO)O[C@@H](n2cnc3c(N)nc(F)nc32)C[C@@H]1O [4′Ed2FA, 2′-deoxy-4′-C-ethynyl-2-fluoroadenosine]
HIV-1wild
  EC50: 0.2 nM
HIV-1 M184V
  EC50: 3.1 nM
HIV [13]
  cells protected against the infection of HIV: About 50%
[14]
  part decomposed: 3%
Adenosine deaminase [15]
  stability to adenosine deaminase: completely stable
ICR mice; i.v., single dosage 1 mg Kg−1, ICR mice
  Survivors/total: 8/8
ICR mice; i.v., single dosage 3 mg Kg−1, ICR mice
  Survivors/total: 8/8
ICR mice; i.v., single dosage 10 mg Kg−1, ICR mice
  Survivors/total: 8/8
ICR mice; i.v., single dosage 30 mg Kg−1, ICR mice
  Survivors/total: 8/8
ICR mice; i.v., single dosage 100 mg Kg−1, ICR mice
  Survivors/total: 8/8
ICR mice; oral or intravenous administration up to 100 mg kg−1
  acute toxicity to mice: did not show any acute toxicity
ICR mice; p.o, single dosage 1 mg Kg−1, ICR mice
  Survivors/total: 8/8
ICR mice; p.o, single dosage 3 mg Kg−1, ICR mice
  Survivors/total: 8/8
ICR mice; p.o, single dosage 10 mg Kg−1, ICR mice
  Survivors/total: 8/8
ICR mice; p.o, single dosage 30 mg Kg−1, ICR mice
  Survivors/total: 8/8
ICR mice; p.o, single dosage 100 mg Kg−1, ICR mice
  Survivors/total: 8/8
HIV-1 Wild-type
  EC50: 0.068 nM
HIV-1 MDR
  EC50: 0.15 nM
HIV-1MDR
  EC50: 0.14 nM
[8]
  CC50: 7500 nM
